Measured values as given in patent publication US20020052295A1, “Diacyl derivatives of propylene diamine having herbicidal activity” (priority 1999, published 2002).

Legend:
[1] = system: dicotyledonous species; assay: Greenhouse post-emergence test in combination with glyphosate, dicotyledonous species; type: in vivo; conditions: glyphosate isopropylammonium salt alone at 1000 g a.e./ha
Text: (§1) A pre-prepared topsoil mixture (described above) was placed in a pot and compacted to a depth of 1.0 to 1.25 cm from the top of the pot. Seeds of each of several monocotyledonous and dicotyledonous annual plant species were placed on top of the soil The seeds were covered with a mixture of 50% topsoil and 50% Rediearth™ in sufficient quantity to level-fill the pots. The pots were then placed on a greenhouse bench and subirrigated as needed until plants growing from the seeds had emerged and reached a suitable growth stage for post-emergence treatment, typically 9 to 14 days after planting.
(§2) A known amount of each test compound dissolved or suspended in an appropriate organic solvent was diluted with a 50:50 mix of acetone and water and applied to the plants by spraying with a standard spray nozzle in a spray volume of 3,100 l/ha at a spray pressure of […] (30 psig). Control plants were not sprayed.
(§3) After treatment the plants were placed in a greenhouse with a 30/21° C. day/night temperature regime and were subsequently watered as needed for growth. Approximately 14 days after treatment, the plants were observed and herbicidal efficacy recorded as percent inhibition by comparison with control plants.
(§4) In a greenhouse post-emergence test conducted according to the procedure described hereinabove, R-2-fluoro-3-trifluoromethyl-N-[1-methyl-2-(3-trifluoromethyl)phenylcarbonylamino]ethylbenzamide (the compound of Example 13) was applied at 0, 64, 125 and 250 g/ha in combination with glyphosate isopropylammonium salt at 1000 g a.e./ha. The glyphosate herbicide alone gave 72% control of dicotyledonous species and 84% control of monocotyledonous species. […] At 250 g/ha, addition of the compound of Example 13 gave 93% control of dicotyledonous species, but reduced control of monocotyledonous species to 73%.

[2] = system: monocotyledonous species; assay: Greenhouse post-emergence test in combination with glyphosate, monocotyledonous species; type: in vivo; conditions: glyphosate isopropylammonium salt alone at 1000 g a.e./ha
Text: as §1, §2, §3, §4

[3] = system: BRAPP; assay: Post-emergence herbicidal activity on BRAPP (broadleaf signalgrass); type: in vivo, Brachiaria platyphylla; conditions: post-emergence spray; lowest tested rate with 80% or greater inhibition; about 14 days after treatment
Outline: (§5)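 Seedlings 9–14 days after planting were sprayed with compound in 50:50 acetone/water at 3,100 l/ha and 511 kPa, with unsprayed controls. Plants were then held in a greenhouse at 30/21° C. day/night. Percent inhibition versus controls was scored about 14 days after treatment.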

[4] = system: SOLNI; assay: Pre-emergence herbicidal activity on SOLNI (black nightshade); type: in vivo, Solanum nigrum; conditions: lowest tested rate giving 80% or greater inhibition, approx. 14 days after planting and treating, greenhouse
Outline: (§6)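 Steps: sterilized fertilized topsoil potted; seeds sown, covered; compound (50:50 acetone/water dilution) applied to soil surface; 0.64 cm overhead irrigation; greenhouse 30/21 °C day/night; % inhibition vs untreated scored at ~14 d; GR80 calculated.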

[5] = system: DATST; assay: Post-emergence herbicidal activity on DATST (jimsonweed); type: in vivo, Datura stramonium; conditions: post-emergence spray; lowest tested rate with 80% or greater inhibition; about 14 days after treatment
Outline: as §5

[6] = system: DATST; assay: Pre-emergence herbicidal activity on DATST (jimsonweed); type: in vivo, Datura stramonium; conditions: lowest tested rate giving 80% or greater inhibition, approx. 14 days after planting and treating, greenhouse
Outline: as §6

[7] = system: PANDI; assay: Post-emergence herbicidal activity on PANDI (fall panicum); type: in vivo, Panicum dichotomiflorum; conditions: post-emergence spray; lowest tested rate with 80% or greater inhibition; about 14 days after treatment
Outline: as §5

[8] = system: POROL; assay: Pre-emergence herbicidal activity on POROL (common purslane); type: in vivo, Portulaca oleracea; conditions: lowest tested rate giving 80% or greater inhibition, approx. 14 days after planting and treating, greenhouse
Outline: as §6

[9] = system: PANMI; assay: Post-emergence herbicidal activity on PANMI (wild proso millet); type: in vivo, Panicum miliaceum; conditions: post-emergence spray; lowest tested rate with 80% or greater inhibition; about 14 days after treatment
[10] = system: CIRAR; assay: Post-emergence herbicidal activity on CIRAR (canada thistle, seedling); type: in vivo, Cirsium arvense; conditions: post-emergence spray; lowest tested rate with 80% or greater inhibition; about 14 days after treatment
Text: All such uses, and the biological activity enabling such uses, are embraced by the term “herbicidal” herein. Tables 15 and 16 summarize results of tests conducted as described below to determine the pre-emergence herbicidal activity, in the form of a GR80 value, of illustrative compounds of this invention. […] Where herbicidal activity was evident but 80% inhibition was not achieved at the highest rate tested (typically 1000 g/ha), an asterisk (*) is shown in the following tables. Herbicidal activity evident in the form of symptoms of phytotoxicity, in the absence of at least 80% inhibition at any rate, is indicated in the tables by “phyto”. A blank cell in the following tables indicates no herbicidal or phytotoxic response at any rate tested.
In another set of tests, the post-emergence activity of compounds of this invention was evaluated on the cool season species listed above. The following procedure was used.
as §1, §2, §3

[11] = system: PANDI; assay: Pre-emergence herbicidal activity on PANDI (fall panicum); type: in vivo, Panicum dichotomiflorum; conditions: lowest tested rate giving 80% or greater inhibition, approx. 14 days after planting and treating, greenhouse
Outline: as §6

[12] = system: CHEAL; assay: Pre-emergence herbicidal activity on CHEAL (common lambsquarters); type: in vivo, Chenopodium album; conditions: lowest tested rate giving 80% or greater inhibition, approx. 14 days after planting and treating, greenhouse
Outline: as §6

[13] = system: CONAR; assay: Post-emergence herbicidal activity on CONAR (field bindweed); type: in vivo, Convolvulus arvensis; conditions: post-emergence spray; lowest tested rate with 80% or greater inhibition; about 14 days after treatment
Outline: as §5

[14] = system: SOLNI; assay: Post-emergence herbicidal activity on SOLNI (black nightshade); type: in vivo, Solanum nigrum; conditions: post-emergence spray; lowest tested rate with 80% or greater inhibition; about 14 days after treatment
Outline: as §5

[15] = system: CIRAR; assay: Pre-emergence herbicidal activity on CIRAR (canada thistle, seedling); type: in vivo, Cirsium arvense; conditions: lowest tested rate giving 80% or greater inhibition, approx. 14 days after planting and treating, greenhouse
Outline: as §6

[16] = system: ECHCG; assay: Pre-emergence herbicidal activity on ECHCG (barnyardgrass); type: in vivo, Echinochloa crus-galli; conditions: lowest tested rate giving 80% or greater inhibition, approx. 14 days after planting and treating, greenhouse
Outline: as §6

[17] = system: POROL; assay: Post-emergence herbicidal activity on POROL (common purslane; table head prints PORAL); type: in vivo, Portulaca oleracea; conditions: post-emergence spray; lowest tested rate with 80% or greater inhibition; about 14 days after treatment
Outline: as §5

[18] = system: SORVU; assay: Post-emergence herbicidal activity on SORVU (shattercane); type: in vivo, Sorghum vulgare; conditions: post-emergence spray; lowest tested rate with 80% or greater inhibition; about 14 days after treatment
Outline: as §5

[19] = system: PANMI; assay: Pre-emergence herbicidal activity on PANMI (wild proso millet); type: in vivo, Panicum miliaceum; conditions: lowest tested rate giving 80% or greater inhibition, approx. 14 days after planting and treating, greenhouse
Outline: as §6

[20] = system: DIGSA; assay: Pre-emergence herbicidal activity on DIGSA (large crabgrass); type: in vivo, Digitaria sanguinalis; conditions: lowest tested rate giving 80% or greater inhibition, approx. 14 days after planting and treating, greenhouse
Outline: as §6

[21] = system: CHEAL; assay: Post-emergence herbicidal activity on CHEAL (common lambsquarters); type: in vivo, Chenopodium album; conditions: post-emergence spray; lowest tested rate with 80% or greater inhibition; about 14 days after treatment
Outline: as §5

[22] = system: AMARE; assay: Pre-emergence herbicidal activity on AMARE (redroot pigweed); type: in vivo, Amaranthus retroflexus; conditions: lowest tested rate giving 80% or greater inhibition, approx. 14 days after planting and treating, greenhouse
Outline: as §6

[23] = system: SORHA; assay: Post-emergence herbicidal activity on SORHA (johnsongrass, seedling); type: in vivo, Sorghum halepense; conditions: post-emergence spray; lowest tested rate with 80% or greater inhibition; about 14 days after treatment
Outline: as §5

[24] = system: ABUTH; assay: Post-emergence herbicidal activity on ABUTH (velvetleaf); type: in vivo, Abutilon theophrasti; conditions: post-emergence spray; lowest tested rate with 80% or greater inhibition; about 14 days after treatment
Outline: as §5

[25] = system: ECHCG; assay: Post-emergence herbicidal activity on ECHCG (barnyardgrass); type: in vivo, Echinochloa crus-galli; conditions: post-emergence spray; lowest tested rate with 80% or greater inhibition; about 14 days after treatment
Outline: as §5

[26] = system: AMARE; assay: Post-emergence herbicidal activity on AMARE (redroot pigweed); type: in vivo, Amaranthus retroflexus; conditions: post-emergence spray; lowest tested rate with 80% or greater inhibition; about 14 days after treatment
Outline: as §5

[27] = system: CONAR; assay: Pre-emergence herbicidal activity on CONAR (field bindweed); type: in vivo, Convolvulus arvensis; conditions: lowest tested rate giving 80% or greater inhibition, approx. 14 days after planting and treating, greenhouse
Outline: as §6

[28] = system: DIGSA; assay: Post-emergence herbicidal activity on DIGSA (large crabgrass); type: in vivo, Digitaria sanguinalis; conditions: post-emergence spray; lowest tested rate with 80% or greater inhibition; about 14 days after treatment
[29] = system: BRAPP; assay: Pre-emergence herbicidal activity on BRAPP (broadleaf signalgrass); type: in vivo, Brachiaria platyphylla; conditions: lowest tested rate giving 80% or greater inhibition, approx. 14 days after planting and treating, greenhouse
Outline: as §6

[30] = system: SETFA; assay: Post-emergence herbicidal activity on SETFA (giant foxtail); type: in vivo, Setaria faberi; conditions: post-emergence spray; lowest tested rate with 80% or greater inhibition; about 14 days after treatment
Outline: as §5

[31] = system: SETFA; assay: Pre-emergence herbicidal activity on SETFA (giant foxtail); type: in vivo, Setaria faberi; conditions: lowest tested rate giving 80% or greater inhibition, approx. 14 days after planting and treating, greenhouse
Outline: as §6

[32] = system: SORHA; assay: Pre-emergence herbicidal activity on SORHA (johnsongrass, seedling); type: in vivo, Sorghum halepense; conditions: lowest tested rate giving 80% or greater inhibition, approx. 14 days after planting and treating, greenhouse
Outline: as §6

Question: Which results are given for “glyphosate isopropylammonium salt [reference compound]”?
Answer: control of dicotyledonous species [1]: 72%; control of monocotyledonous species [2]: 84%

Question: Which results are given for `C[C@H](CNC(=O)c1cccc(C(F)(F)F)c1)NC(=O)Oc1ccc(F)cc1` [Example 230]?
Answer: Post-emergence activity (GR80) BRAPP [3]: [empty]; Pre-emergence activity (GR80) on SOLNI [4]: * (Where herbicidal activity was evident but 80% inhibition was not achieved at the highest rate tested (typically 1000 g/ha), an asterisk (*) is shown); Post-emergence activity (GR80) DATST [5]: phyto; Pre-emergence activity (GR80) on DATST [6]: 750 g/ha; Post-emergence activity (GR80) PANDI [7]: [empty]; Pre-emergence activity (GR80) on PORAL [8]: 500 g/ha; Post-emergence activity (GR80) PANMI [9]: [empty]; Post-emergence activity (GR80) CIRAR [10]: [empty]; Pre-emergence activity (GR80) on PANDI [11]: 1000 g/ha; Pre-emergence activity (GR80) on CHEAL [12]: 1000 g/ha; Post-emergence activity (GR80) CONAR [13]: phyto; Post-emergence activity (GR80) SOLNI [14]: [empty]; Pre-emergence activity (GR80) on CIRAR [15]: 750 g/ha; Pre-emergence activity (GR80) on ECHCG [16]: phyto; Post-emergence activity (GR80) PORAL [17]: phyto; Post-emergence activity (GR80) SORVU [18]: [empty]; Pre-emergence activity (GR80) on PANMI [19]: phyto; Pre-emergence activity (GR80) on DIGSA [20]: 750 g/ha; Post-emergence activity (GR80) CHEAL [21]: phyto; Pre-emergence activity (GR80) on AMARE [22]: 500 g/ha; Post-emergence activity (GR80) SORHA [23]: [empty]; Post-emergence activity (GR80) ABUTH [24]: [empty]; Post-emergence activity (GR80) ECHCG [25]: [empty]; Post-emergence activity (GR80) AMARE [26]: phyto; Pre-emergence activity (GR80) on CONAR [27]: phyto; Post-emergence activity (GR80) DIGSA [28]: phyto; Pre-emergence activity (GR80) on BRAPP [29]: phyto; Post-emergence activity (GR80) SETFA [30]: [empty]; Pre-emergence activity (GR80) on SETFA [31]: * (Where herbicidal activity was evident but 80% inhibition was not achieved at the highest rate tested (typically 1000 g/ha), an asterisk (*) is shown); Pre-emergence activity (GR80) on SORHA [32]: phyto
